Measurements reported in ChEMBL document CHEMBL6074620, “Discovery of a triphenylamine-based ligand that targets mitochondrial DNA G-quadruplexes and activates the cGAS-STING immunomodulatory pathway” (Eur J Med Chem, 2024).
Calls of active or inactive are those of the source. The rule behind the calls is not given here.

Key:
4T1 [1] = assay: Inhibition of colony formation in mouse 4T1 cells assessed as decrease in number of colonies measured after 10 days of treatment by […]; assay type: functional, cell-based; details: dose <= 2.0 µM, time 10.0 day
4T1 [2] = assay: Induction of mitochondrial damage in mouse 4T1 cells assessed as decrease in ND4 level at 5 uM in presence of NAC by qPCR analysis; assay type: functional, cell-based
Mus musculus [3] = assay: Immunostimulatory activity in female BALB/c mouse implanted with mouse 4T1 cells assessed as change in CD8+ T cells in spleen at 2.5 mg/kg, sc by flow cytometry; assay type: functional, organism-based
4T1 [4] = assay: Induction of ROS generation in mouse 4T1 cells assessed as increase 8-OG level in presence of 8-oxoguanine by DAPI staining based immunofluorescence based analysis; assay type: functional, cell-based
4T1 [5] = assay: Induction of mitochondrial damage in mouse 4T1 cells assessed as decrease in CytB level at 5 uM in presence of NAC by qPCR analysis; assay type: functional, cell-based
Mus musculus [6] = assay: Immunostimulatory activity in female BALB/c mouse implanted with mouse 4T1 cells assessed as tumor infiltrating lymphocytes by measuring increase in CD4+ and CD8+T cells at 2.5 mg/kg, sc by immunohistochemistry analysis; assay type: functional, organism-based
Mus musculus [7] = assay: In-vivo activation of cGAS-STING signaling pathway in female BALB/c mouse assessed as IRF3 level in tumor at 2.5 mg/kg, sc by Western blot analysis; assay type: functional, organism-based
4T1 [8] = assay: Activation of cGAS-STING pathway in mouse 4T1 cells assessed as increase in cGAS expression level by Western blot analysis; assay type: cell-based; details: filed as activator, dose <= 5.0 µM
Mus musculus [9] = assay: Immunostimulatory activity in female BALB/c mouse implanted with mouse 4T1 cells assessed as increase in CD8+ T cells in spleen 2.5 mg/kg, iv by flow cytometry; assay type: functional, organism-based
[10] = Toxicity in female BALB/c mouse implanted with mouse 4T1 cells assessed as change in kidney weight at 2.5 mg/kg, sc measured after 21 days by Hematoxylin-Eosin staining based analysis; assay type: organism-based; details: in vivo, 504 h, time 21 day
Mus musculus [11] = assay: Immunostimulatory activity in female BALB/c mouse implanted with mouse 4T1 cells assessed as upregulation of M1 macrophages level 2.5 mg/kg, sc by flow cytometry analysis; assay type: functional, organism-based
4T1 [12] = assay: Activation of cGAS-STING pathway in mouse 4T1 cells assessed as […] in STING phosphorylation up to 5 uM by Western blot analysis; assay type: cell-based; details: filed as activator
4T1 [13] = assay: Antitumor activity against mouse 4T1 cells implanted with female BALB/c mouse assessed as effect on PARP level in tumor at 2.5 mg/kg, sc measured for 21 days; assay type: functional, organism-based; details: time 21.0 day
4T1 [14] = assay: Induction of mitochondrial damage in mouse 4T1 cells assessed as decrease in Dloop2 level at 5 uM in presence of NAC by qPCR analysis; assay type: functional, cell-based
4T1 [15] = assay: Induction of mitochondrial damage in mouse 4T1 cells assessed as increase in ND4 level by qPCR analysis; assay type: functional, cell-based
4T1 [16] = assay: Activation of cGAS-STING signaling pathway in mouse 4T1 cells assessed as increase in TNF-alpha level at 5 uM by qPCR analysis; assay type: cell-based; details: filed as activator
4T1 [17] = assay: Induction of apoptosis in mouse 4T1 cells assessed as decrease in caspase-3 level at 5 uM by Western blotting analysis; assay type: functional, cell-based
4T1 [18] = assay: Induction of mitochondrial damage in mouse 4T1 cells assessed as decrease in Dloop2 level at 5 uM in presence of DDC by qPCR analysis; assay type: functional, cell-based
4T1 [19] = assay: Induction of apoptosis in mouse 4T1 cells at 5 uM by Annexin V/PI staining based flow cytometry analysis; assay type: functional, cell-based
4T1 [20] = assay: Activation of cGAS-STING signaling pathway in mouse 4T1 cells assessed as increase in IFN-beta level at 5 uM by qPCR analysis; assay type: cell-based; details: filed as activator
4T1 [21] = assay: Induction of mitochondrial damage DNA in mouse 4T1 cells assessed as reduction in mtDNA by qPCR analysis; assay type: functional, cell-based
Mus musculus [22] = assay: Immunostimulatory activity in female BALB/c mouse implanted with mouse 4T1 cells assessed as increase in number of activated CD8+ T cells in spleen 2.5 mg/kg, sc by flow cytometry; assay type: functional, organism-based
4T1 [23] = assay: Inhibition of tumor metastasis in mouse 4T1 cells assessed as reduction in wound healing after 24 hrs; assay type: functional, cell-based
4T1 [24] = assay: Activation of cGAS-STING signaling pathway in mouse 4T1 cells assessed as increase in IL-6 level at 5 uM by qPCR analysis; assay type: cell-based; details: filed as activator
4T1 [25] = assay: Activation of cGAS-STING signaling pathway in mouse 4T1 cells assessed as […] in TBK1 phosphorylation up to 5 uM by Western blot analysis; assay type: cell-based; details: filed as activator
4T1 [26] = assay: Activation of cGAS-STING signaling pathway in mouse 4T1 cells assessed as increase in ISG54 level at 5 uM by qPCR analysis; assay type: cell-based; details: filed as activator
Quadruplex DNA [27] = assay: Binding affinity to G4-quadruplex mt6363 DNA (unknown origin) at 10 uM by fluorescence based analysis; assay type: nucleic-acid assay
Mus musculus [28] = assay: In-vivo activation of cGAS-STING signaling pathway in female BALB/c mouse assessed as increase in IFN-beta level at 2.5 mg/kg, sc by ELISA analysis; assay type: functional, organism-based
[29] = Toxicity in female BALB/c mouse implanted with mouse 4T1 cells assessed as change in liver weight at 2.5 mg/kg, sc measured after 21 days by Hematoxylin-Eosin staining based analysis; assay type: organism-based; details: in vivo, 504 h, time 21 day
4T1 [30] = assay: Activation of cGAS-STING signaling pathway in mouse 4T1 cells assessed as increase in IFN-beta level up to 5 uM by ELISA analysis; assay type: cell-based; details: filed as activator
4T1 [31] = assay: Induction of ROS generation in mouse 4T1 cells assessed as increase green fluorescence by DCFH-DA staining based analysis; assay type: functional, cell-based
Quadruplex DNA [32] = assay: Binding affinity to 5-terminal mt6363 DNA (unknown origin) assessed as dissociation constant by TAMRA-labeled G4 quenching assay; assay type: nucleic-acid assay
4T1 [33] = assay: Activation of cGAS-STING signaling pathway in mouse 4T1 cells assessed as […] in IRF3 phosphorylation up to 5 uM by Western blot analysis; assay type: cell-based; details: filed as activator
4T1 [34] = assay: Induction of mitochondrial damage in mouse 4T1 cells assessed as decrease in ND4 level at 5 uM in presence of DDC by qPCR analysis; assay type: functional, cell-based
Mitochondrial membrane = assay: Disruption of mitochondrial membrane potential in mouse 4T1 cells assessed as decrease red fluorescence at 0 to 5 uM by JC-1 staining based analysis; details: dose 0-5 µM
4T1 [35] = assay: Antitumor activity against mouse 4T1 cells implanted with female BALB/c mouse assessed as suppression in lung metastasis at 2.5 mg/kg, iv administered every 3 days for 2 weeks from day 7; assay type: functional, organism-based
4T1 [36] = assay: Antitumor activity against mouse 4T1 cells implanted with female BALB/c mouse assessed as decrease tumor volume at 2.5 mg/kg, sc administered for every 3 days for 2 weeks from day 7; assay type: functional, organism-based
4T1 [37] = assay: Induction of mitochondrial damage in mouse 4T1 cells assessed as increase in Dloop2 level by qPCR analysis; assay type: functional, cell-based
4T1 [38] = assay: Induction of mitochondrial damage in mouse 4T1 cells assessed as increase in CytB level by qPCR analysis; assay type: functional, cell-based

COc1ccc(N(c2ccc(/C=C/C3=[N+](C)c4ccc5ccccc5c4C3(C)C)cc2)c2ccc(OC)cc2)cc1.[I-]
Activity (4T1 [1]): Dose-dependent-effect
Activity (4T1 [2]): Active
Activity (Mus musculus [3]): Active
Activity (4T1 [4]): Active
Activity (4T1 [5]): Active
Activity (Mus musculus [6]): Active
Activity (Mus musculus [7]): Active
Activity (4T1 [8]): Dose-dependent-effect
Activity (Mus musculus [9]): Active
Activity [10]: Non-toxic
Activity (Mus musculus [11]): Active
Activity (4T1 [12]): Active
Activity (4T1 [13]): Active
Activity (4T1 [14]): Active
Activity (4T1 [15]): Active
Activity (4T1 [16]): Active
Activity (4T1 [17]): Active
Activity (4T1 [18]): Active
Activity (4T1 [19]): Active
Activity (4T1 [20]): Active
Activity (4T1 [21]): Active
Activity (Mus musculus [22]): Active
Activity (4T1 [23]): Active
Activity (4T1 [24]): Active
Activity (4T1 [25]): Active
Activity (4T1 [26]): Active
Activity (Quadruplex DNA [27]): Active
Activity (Mus musculus [28]): Active
Activity [29]: Non-toxic
Activity (4T1 [30]): Active
Activity (4T1 [31]): Dose-dependent-effect
Kd (Quadruplex DNA [32]): 2400 nM
Activity (4T1 [33]): Active
Activity (4T1 [34]): Active
Activity (Mitochondrial membrane): Active
Activity (4T1 [35]): Active
Activity (4T1 [36]): Active
Activity (4T1 [37]): Active
Activity (4T1 [38]): Active
